Results taken from US10450327B2, “Epidithiodioxopiperazine compound or its derivatives, and the use thereof” (priority 2011, dated 2019).
Entries after “also recorded” stand apart in the source; their conditions may differ.

Assays:
[1] = tested on: HASMCs; type: cell-based, human; settings: up to 100 nM (200 nM for A4, A7, A9)
[2] = tested on: HAECs; type: cell-based, human; settings: up to 50 nM (100 nM for A4, A7, A9)
Experimental: For cell proliferation assay, HAECs were divided at a concentration of 4000 cells/well in a final volume of 100 μl onto a 96-well plate including a siRNA-transfection reagent mixture. After siRNA-transfected for 24 hours, the cells were serum-starved for 18 hours, and then placed in an EBM-2 basal medium supplemented with VEGF-A165 (25 ng/ml, Cat no. 293-VE, R&D systems) for additional 24 hours. The extent of cell proliferation was measured using a WST-1 cell proliferation assay kit (Roche Diagnostics, USA), and the number of cells was expressed as absorbance at 450 nm, which was averaged from 3 wells after subtracting the turbidity at 600 nm.
The cell migration assay was performed in a 24-well Transwell culture chamber (Costar; 8-μm pore size). The bottom of the filter was coated with gelatin B (1 mg/ml) and air-dried for 1 hour. HAECs (6×10^3) were added to upper chambers including siRNA-transfection complexes. After 24 hours, the siRNA-transfected HAECs were serum-starved overnight. A solution of VEGF-A (25 ng/ml) was prepared in a basal medium including 0.5% bovine serum albumin (BSA), and added to bottom chambers. The upper chamber wells were each filled with a basal medium including 0.5% BSA. The Transwell chamber was incubated for 8 hours under the condition of 37° C./5% carbon dioxide. After the incubation, the non-migrated cells at the top of the filter were removed, and the cells that migrated onto the bottom of filter were fixed and stained with 0.6% hematoxylin and 0.5% eosin. The stained cells were photographed and counted. The number of migrating cells was averaged from 3 wells.

[3] = tested on: yeast thioredoxin (Trx) / yeast thioredoxin reductase (TR) system; experiment: Peroxidase activity assay (hydrogen peroxide reduction), Trx/TR system; type: biochemical
Experimental: The peroxidase activity assay for the epidithiodioxopiperazine derivatives according to the present invention (hereinafter, referred to as ETP compounds) was performed according to known methods [Korean Patent No. 10-0953326]. A standard peroxidase reaction for spectrophotometric assay was carried out using a 200 μl reaction mixture of 1 mM EDTA-containing 50 mM Hepes-NaOH buffer solution (pH 7.0) including 250 μM NADPH, 3 μM yeast thioredoxin (Trx), 1.5 μM yeast thioredoxin reductase (TR), 25 μM ETP compound and […] of hydrogen peroxide. For the comparison with a glutathione (GSH)-dependent peroxidase reaction, GSH (1 mM) and yeast glutathione reductase (GSH reductase; GR) (1 Unit) were added instead of yeast Trx and TR. Each reaction was initiated by adding hydrogen peroxide, and the NADPH oxidation was monitored for 12 minutes at 30° C. according to absorbance decrease at 340 nm using an Agilent UV8453 spectrophotometer (Hewlett Packard, USA). The initial reaction rate was calculated using the linear portion of the curve and expressed as the amount of NADPH oxidized per minute.
The chemical feature of the epidithiodioxopiperazine compound of the present invention or its derivatives is the intramolecular disulfide bridge present in the epidithiodioxopiperazine ring moiety. Cellular peroxidase reduces hydrogen peroxide utilizing the electrons derived from NADPH via two electron-transfer routes, that is, Trx/TR or GSH/GR, therefore, spectrophotometric assay was performed for the hydrogen peroxide-reducing activity in the presence of each system, and the results are shown in FIGS. 1 to 5.

[4] = tested on: balloon-injured rat carotid artery; experiment: Balloon-injury model of rat carotid artery; type: in vivo; settings: local administration to the lumen through catheter, 30 minutes; ETP derivatives 200 nM; 10 days recovery
Experimental: Animal experiments were performed in compliance with the guidelines of Institutional Animal Care and Use Committee (IACUC) of the Ewha Womans University. Balloon injury was created using an infiltrated 2 F Fogarty balloon catheter in the left common carotid artery as follows: after the ten-week-old male Sprague-Dawley rats were anaesthetized by isoflurane gas (N2O:O2/70%:30%) inhalation, the left external carotid artery was exposed, and its branches were electrocoagulated. A catheter was pushed 1 cm in through the transverse arteriotomy of the external carotid artery, and the endothelial denudation was achieved by three passes along the common carotid artery. After the catheter was removed, the punched area was sealed and the clapped common carotid artery was opened for resuming the blood flow. Unless otherwise stated, the rats were recovered in a cage for 10 days, and subjected to histological and immunological analyses.
Rats were anesthetized, and the common carotid artery was excised after transcardiac perfusion-fixation with a heparinized saline solution containing 3.7% formaldehyde. The vessels were paraffin embedded and sectioned using a rotary microtome (Leica RM2255). Two serial tissue sections (4 μm in thickness) were obtained from the middle area of common carotid arteries, and stained with haematoxylin and eosin (HE). The luminal, internal elastic laminal, and external elastic laminal areas were measured using NIH Image v1.62. The intimal and medial areas were determined by subtracting the luminal area from the internal elastic area and subtracting the internal elastic area from the external elastic area. The values from the two serial sections for each rat were averaged for analysis.
For the in vivo injection of siRNA, a siRNA mixture specific to rat PrxII (200 nM) was premixed with a siPORT™ NeoFX™ reagent according to the instructions of the manufacturer (Ambion). Immediately after the balloon injury, the siRNA-injected mixture (200 μL) was injected through a catheter after briefly washed with Opti-MEM. After the incubation for 15 minutes, the blood flow was resumed. A siGLO-Red (Dharmacon), which is fluorescent dye-conjugated control siRNA, was used for optimizing in vivo injection efficiency. Similarly, the ETP compound (200 nM in DMSO) was injected through a catheter and incubated for 30 minutes.
Immunohistochemistry for the overoxidized 2-Cys Prxs was performed on the paraffin sections using an anti-Prx-SO2/3 antibody (1:1000 dilution). Briefly, the sections were de-waxed in xylene and rehydrated in ethanol, and subsequently the antigen retrieval was performed by boiling in a citric buffer solution (pH 6.0). After that, the sections were incubated with a primary antibody for 48 hours at 4° C. After washing three times with a phosphatebuffered saline solution, the sections were incubated with a peroxidase-conjugated secondary antibody and stained with a 3′,3′-diaminobenzidine (DAB) substrate solution. For negative staining, the Prx-502/3 antibody was blocked with the corresponding antigenic peptide (DFTFVC(SO2/3)PTEI). For indirect immunofluorescence staining, the paraffin sections were blocked with 5% normal rabbit serum (Vector Laboratories) in PBST (a PBS solution of 0.3% Triton X-100) for 1 hour at room temperature. The sections were then incubated overnight at 4° C. with the […] against rat smooth muscle α-actin (1:300 dilution) and rat CD31 (PECAM-1, 1:200 dilution). The nuclei were labeled with DAPI. After several PBST washes, the samples were incubated for 2 hours at room temperature with Alexa Fluor 568-conjugated donkey anti-mouse and Alexa Fluor 488-conjugated donkey anti-rabbit IgG antibodies. The fluorescence images were recorded on three random fields per tissue section at a screen magnification of 100× using a LSM 510 Meta confocal microscope equipped with argon and helium-neon lasers.
The paraffin sections were incubated for 10 minutes in PBS containing 0.1% Triton X-100. […]

Row | Compound | proliferation and chemotactic transmigration of HASMCs in response to PDGF, enhanced by PrxII knockdown [1] | VEGF-induced proliferation and chemotactic transmigration of HAECs, impaired by PrxII knockdown [2] | initial reaction rate for hydrogen peroxide reduction compared to the corresponding oxidized type [3] | hydrogen peroxide-reducing (peroxidase) activity in the presence of a Trx/TR system, in words [3] | intimal hyperplasia (ratio of intima versus media, HE staining) [4]
1 | O=C1NC2SSC1NC2=O [Compound A1, 2,3-dithia-5,7-diazabicyclo[2.2.2]octane-6,8-dione] | excellent activities | excellent activities |  |  | 
2 | CN1C(=O)C2SSC1C(=O)N2C [Compound A2, 5,7-dimethyl-2,3-dithia-5,7-diazabicyclo[2.2.2]-octane-6,8-dione] | excellent activities | excellent activities |  |  | 
3 | CN1C(=O)C(S)N(C)C(=O)C1S (centres unmarked) [Compound A2R, 3,6-dimercapto-1,4-dimethylpiperazine-2,5-dione] | no significant changes | no significant changes | higher intial reaction rates |  | 
4 | CN1C(=O)C2(C)SSC1C(=O)N2C (centres unmarked) [Compound A3, 1,5,7-trimethyl-2,3-dithia-5,7-diazabicyclo[2.2.2]octane-6,8-dione] | excellent activities | excellent activities |  |  | 
5 | COc1ccc(CN2C(=O)C3SSC2C(=O)N3Cc2ccc(OC)cc2)cc1 [Compound A4, 5,7-bis(4-methoxybenzyl)-2,3-dithia-5,7-diazabicyclo[2.2.2]octane-6,8-dione] | insignificant activities; also recorded: low activities | insignificant activities; also recorded: low activities |  |  | 
6 | C=CCN1C(=O)C2SSC1C(=O)N2CC=C [Compound A5, 5,7-diallyl-2,3-dithia-5,7-diazabicyclo[2.2.2]octane-6,8-dione] | excellent activities | excellent activities |  |  | 
7 | C=CCN1C(=O)C(S)N(CC=C)C(=O)C1S (centres unmarked) [Compound A5R, 3,6-dimercapto-1,4-diallylpiperazine-2,5-dione] | no significant changes | no significant changes | higher intial reaction rates |  | 
8 | COc1ccc(CN2C(=O)C3NC(=O)C2SS3)cc1 (centres unmarked) [Compound A6, 5-(4-methoxybenzyl)-2,3-dithia-5,7-diazabicyclo[2.2.2]octane-6,8-dione] | moderate activities | moderate activities |  |  | 
9 | O=C1C2SSC(C(=O)N2C(c2ccccc2)c2ccccc2)N1C(c1ccccc1)c1ccccc1 [Compound A7, 5,7-dibenzhydryl-2,3-dithia-5,7-diazabicyclo[2.2.2]octane-6,8-dione] | insignificant activities; also recorded: low activities | insignificant activities; also recorded: low activities |  |  | 
10 | CCCCN1C(=O)C2SSC1C(=O)N2CCCC [Compound A8, 5,7-dibutyl-2,3-dithia-5,7-diazabicyclo[2.2.2]octane-6,8-dione] | excellent activities | excellent activities |  |  | 
11 | COCCCN1C(=O)C2SSC1C(=O)N2CCCOC [Compound A9, 5,7-bis(3-methoxypropyl)-2,3-dithia-5,7-diazabicyclo[2.2.2]octane-6,8-dione] | insignificant activities; also recorded: moderate activities | insignificant activities; also recorded: moderate activities |  |  | 
12 | CS[C@]1(CO)C(=O)N2[C@H]3C(=CC=C[C@@H]3O)C[C@@]2(SC)C(=O)N1C [bis(methylthio)gliotoxin, Bis(methylthio)gliotoxin] |  |  |  | not observed | did not suppress
